The text below walks through data of patent US20090137593A1, “4-AMINO-2,6-DIMETHYLPHENOL COMPOUND, PROCESS FOR ITS PREPARATION AND PHARMACEUTICAL COMPOSITION COMPRISING THE SAME” (AZIEN CHIM RIUNITE ANGEL FRANC A.C.R.A.F. S.P.A., priority 2006, published 2009).

Assay [1] deals with 5-LO-mediated bronchoconstriction. To be noted: Sakuma Y et al., Prostaglandins, 1991; cited from earlier work.
For assay [2], the system named is yeast-induced febrile response. As to the kind of experiment: Anti-pyretic activity (yeast-induced febrile response, rectal temperature). To be noted: CD rats; for effect on the febrile response (rectal temperature): 30 mg/kg ip 18 hours after yeast, FIG. 1. The class given is in vivo, Male CD rats. Here is the method: This test allows in vivo evaluation of the effects on the yeast-induced febrile response. Male CD rats weighing 101-125 g were used. Fevers were induced by subcutaneous injection of a 15% yeast suspension. 18 hours after the administration of yeast, a first group of animals was treated intraperitoneally (30 mg/kg) with Compound 2, while a second group of animals was treated with the Comparison Compound. A third group of control animals received intraperitoneally only the vehicle (methylcellulose) used to administer the tested compounds. For all the groups, the rectal temperature was measured 30 minutes and 1, 2 and 4 hours after the treatment.

For assay [3], the system named is nephritis induced by anti-GBM antibodies. As to the kind of experiment: Effects on nephritis induced by anti-GBM antibodies (proteinuria over 24 hours). It is filed as in vivo, Male WKY rats. Conditions: Rattus norvegicus, WKY rats, 100 mg/kg ip, 2 administrations per day, tenth day, read-out: percentage of inhibition of the amount of protein excreted (anti-GBM nephritis). Here is the method:
This test allows evaluation in vivo of the effects on renal damage induced by the inflammatory response following the administration of anti-GBM antibodies (anti-glomerular basal membrane antibodies). Male WKY rats weighing 180-220 g were used. The nephritis was induced by intravenous injection of anti-GBM antibodies. Immediately after administration of the antibody and 6 hours later, Compound 2 was administered intraperitoneally (100 mg/kg). The treatment was continued for the following 9 days, with 2 administrations per day of the tested product. By following the same methods, the control animals received only the vehicle (methylcellulose) used to administer the tested compound. On the tenth day from injection of the antibodies, the effects on nephritis were evaluated by measuring the proteinuria over 24 hours and expressed as a percentage of inhibition of the amount of protein excreted.

The subject of assay [4] is 5-LO-mediated bronchoconstriction. Put plainly: Effect on 5-LO-mediated bronchoconstriction in vivo (ovalbumin-sensitized guinea pigs, intratracheal pressure). To be noted: Cavia porcellus, 100 mg/kg ip, 30 minutes before ovalbumin 15 μg/kg iv, read-out: percentage of inhibition of bronchoconstriction. Here is the method: Guinea pigs weighing 250-400 g were used.
The animals were sensitized by administration on days 1 and 8 of ovalbumin (0.5 μg/animal, ip). Between days 19 and 23 after the sensitization, the capacity of ovalbumin (15 μg/kg, iv) to induce bronchoconstriction was tested by measuring the increase in intratracheal pressure.
On the day of the test, 30 minutes after administration of Compound 2 (100 mg/kg, ip), the animals were treated with mepiramine (2 mg/kg, iv), indomethacin (10 mg/kg, iv) and propranolol (0.1 mg/kg, iv), and then received ovalbumin (15 μg/kg, iv) to induce bronchoconstriction. The control animals received intraperitoneally only the vehicle used (methylcellulose) for the administration of the tested compound.
The effects on 5-LO-mediated bronchoconstriction in vivo were evaluated by measuring the intratracheal pressure, and are expressed as a percentage of inhibition of bronchoconstriction.

For the next assay, the target named is T1, enzyme 5-LO (Homo sapiens, UniProt P09917).
T1 construct: Human PMNL cells (polymorphonuclear leukocytes) were used; endogenous in cells; host or cells: human polymorphonuclear leukocytes (PMNL)
T1 sequence (P09917 1-674): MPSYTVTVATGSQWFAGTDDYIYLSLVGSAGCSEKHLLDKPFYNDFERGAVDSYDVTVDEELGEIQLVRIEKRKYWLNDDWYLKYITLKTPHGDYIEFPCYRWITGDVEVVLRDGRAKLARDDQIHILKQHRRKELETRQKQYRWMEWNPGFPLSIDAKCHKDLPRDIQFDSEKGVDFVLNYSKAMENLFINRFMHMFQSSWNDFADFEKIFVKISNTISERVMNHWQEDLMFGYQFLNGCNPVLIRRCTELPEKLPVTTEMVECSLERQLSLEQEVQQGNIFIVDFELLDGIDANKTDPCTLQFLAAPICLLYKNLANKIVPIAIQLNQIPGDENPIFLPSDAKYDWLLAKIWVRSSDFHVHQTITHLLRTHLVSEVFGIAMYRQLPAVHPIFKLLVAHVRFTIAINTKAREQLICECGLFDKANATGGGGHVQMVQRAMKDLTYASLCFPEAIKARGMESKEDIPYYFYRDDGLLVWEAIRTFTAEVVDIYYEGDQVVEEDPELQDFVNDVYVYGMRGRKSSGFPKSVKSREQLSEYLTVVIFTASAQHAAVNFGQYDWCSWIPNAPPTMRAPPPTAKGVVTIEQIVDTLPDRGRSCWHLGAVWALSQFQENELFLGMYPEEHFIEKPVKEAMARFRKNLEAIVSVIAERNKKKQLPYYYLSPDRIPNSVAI
Put plainly: Effect on the enzyme 5-LO in vitro (human PMNL cells, arachidonic acid substrate, leukotriene quantification). The class given is cell-based. Conditions: arachidonic acid as substrate, leukotriene (LT4) quantified. Here is the method: Human PMNL cells (polymorphonuclear leukocytes) were used.
The cells were incubated in the presence of N-(4-hydroxy-3,5-di-methylphenyl)-2-morpholin-4-yl acetamide hydrochloride (Compound 2), using arachidonic acid as reaction substrate.
The activity of the enzyme 5-LO was evaluated by quantifying leukotriene […], which is the final product of the enzymatic reaction.

For assay [5], the system named is nociceptive response induced by mechanical hyperalgesia. As to the kind of experiment: Anti-nociceptive activity (carrageenan-induced mechanical hyperalgesia, analgesimeter). The class given is in vivo, Male CD rats. To be noted: Rattus norvegicus; CD rats, ip 2 hours after carrageenan, evaluated 1, 2 and 4 hours after treatment; read-out: ED50 (anti-nociceptive, mechanical pain threshold).

The test system of the next assay is PAN-induced nephrosis. Put plainly: Effects on PAN-induced nephrosis (proteinuria over 24 hours). The class given is in vivo, Male SD rats. To be noted: Rattus norvegicus, SD rats, 100 mg/kg ip on seventh day, read-out: percentage of inhibition of the amount of protein excreted (PAN-induced nephrosis). How it is done: This test allows the in vivo evaluation of the effects on renal damage induced by the inflammatory response following the administration of PAN (puromycin aminonucleoside). Male SD rats weighing 180-220 g were used. The nephrosis was induced by intravenous injection of PAN (100 mg/kg). On the sixth day of administration of PAN, the presence of nephrosis was determined by measuring the amount of protein excreted in the urine over 24 hours (basal proteinuria). On the seventh day, the rats were treated intraperitoneally with Compound 2 (100 mg/kg) and for the next 24 hours the urine was collected to measure the proteinuria. By following the same method, the control animals received, intraperitoneally, only the vehicle (methylcellulose) used to administer the tested compound. The effects on the PAN-induced nephrosis were evaluated by measuring the proteinuria over 24 hours and expressed as a percentage of inhibition of the amount of protein excreted.

The structures appear in SMILES notation. Structures can show the parent of a compound that is named as a salt. Bounds are passed on as bounds.

Turning to `O=C1CCN(c2ccccc2)N1` [phenidone], the “percentage of inhibition of bronchoconstriction (literature reference)” value in assay [1] is 86%.

Broadly, the inhibition is the change of the read-out against control, counted positive when it falls. As usually defined, the IC50 is the concentration that inhibits the measured activity by half. High values mean weaker potency, low ones greater potency. A word on the ED50: it is the midpoint of the dose-response relation. With `Cc1cc(NC(=O)CN2CCOCC2)cc(C)c1O` [Compound 2, N-(4-Hydroxy-3,5-dimethylphenyl)-2-morpholin-4-yl acetamide hydrochloride], the “duration of the anti-pyretic effects” value in assay [2] (30 mg/kg ip) is on record as “about 4 hours”. Further, in assay [2] (30 mg/kg ip), the “time to significant reduction in the febrile response after treatment” value is ≤ 1 h. In addition, in assay [2], the “effect on the febrile response (rectal temperature)” value was “significant reduction in the febrile response”. Also, the values for the inhibition at 100 mg/kg (in assay [3]; in assay [4]; with PAN-induced nephrosis) were 1%, 7% and 2%, respectively. At enzyme 5-LO, the concentration for half-maximal inhibition (IC50) came out at 31 µM. In assay [5], the ED50 was 3 mg/kg.

Take `Cc1cc(NC(=O)CCN2CCOCC2)cc(C)c1O` [Comparison Compound, N-(4-Hydroxy-3,5-dimethylphenyl)-3-morpholin-4-yl propanamide hydrochloride, reference compound]: the “effect on the febrile response (rectal temperature)” value in assay [2] is “incapable of reducing the febrile response”. Moreover, the ED50 in assay [5] was > 100 mg/kg.
